The text below walks through data of US20240050447A1 (Propella Therapeutics, Inc., priority 2020, published 2024).

Several values for one entry are separate records, joined by “and”; a condition that tells them apart may be missing. Equal entries are not always repeated. Where two headings read alike, the source gives them in different places.

For data set [1] the following is noted: dogs (N=3); Group 2: IM 77 mg/kg abiraterone isocaproate, 158 mg/ml in 90% corn oil/10% benzyl alcohol; plasma analyte = label; mean.
For data set [2] the following is noted: male, rat, in vivo, im.
Description: (§1) Several formulations were considered in the initial rat study.
(§2) The above formulations were administered to either rats or dogs as an IV injection or as IM injections to the hind leg(s) of each animal.
The conditions of data set [3]: dog, in vivo.
Data set [4] is described as follows: Plasma PK in rats after IM injection of abiraterone or abiraterone acetate formulations (Example 5A). The conditions noted are these: male, rat, group mean.
Description: as §1, §2
Data set [5] in a line: in vivo. The conditions noted are these: monkey, plasma, intramuscular, 90 mg/kg.
Excerpt: (§3) Weighting was included, dependent on the pattern of residuals (residual Y versus predicted concentration or time) and precision of the estimated parameters. The appropriate model was selected based on: (i) visual inspection of the model fit to the data (ii) the lowest value of Akaike Information Criterion (AIC) and (iii) precision of the estimated parameters (CV). Systemic clearance (CL) and apparent volume of distribution (Vss) were derived from the exponential functions.
(§4) Deconvolution: The rate and extent of input from an intramuscular administration was simulated by deconvolution using WinNonlin Phoenix Version 8.2. Deconvolution is based on linear systems analysis and is defined by the convolution integral: G(t)=R(t)*H(t). G(t) is the measured plasma concentration profile after intramuscular dosing, H(t) is represented by the exponential function described in Section 3.2 and R(t), the rate of input from the IM depot over time, is derived by deconvolution of the above expression. The slope of the input rate versus time generates the input rate constant (Koi). Integration of input rate versus time generates the cumulative input function and an estimate of absolute bioavailability.
A short description of data set [6]: in vivo. The conditions noted are these: Beagle, dog; for half-life: iv.
Description: Nominal dose values and sampling times were used for calculations. For the purpose of PK calculations, any concentration reported as “BLQ” was set equal to zero.
Cmax and the corresponding Tmax values were determined by direct assessment of the concentration versus time data. All AUC calculations were performed using the linear trapezoidal rule.
As data permitted, the terminal elimination rate constant (lambda z, λz) was calculated.
To optimize the reliability of the identified terminal phase (λz), where possible, the data points used to define the λz were manually selected.
The AUCINF value was calculated as: AUClast+(Clast/λz). CL/F was calculated as: Dose per dosing interval/(AUCINF) and Vz/F was calculated as: Dose per dosing interval/(AUCINF*λz). Terminal t1/2 was calculated as: ln(2)/λz.
Mean plasma concentration versus time data are presented with standard deviation (SD) and percent coefficient of variation (CV %) and reported to three significant figures. PK parameter values are presented with mean, SD, and CV %. Individual Tmax values were reported to two significant figures, while all other values and descriptive statistics are reported to three significant figures.
A short description of data set [7]: PK modelling and deconvolution of abiraterone plasma profiles, monkeys (Example 7D).
Excerpt: as §3, §4
A short description of data set [8]: Allometric scaling and prediction of plasma profile of abiraterone in man (Example 7D).
Excerpt: (§5) CL and Vss in man were predicted from CL and Vss in animals by an allometric approach. Vss=a·W^x where a is the intercept, W is bodyweight and x is the allometric exponent; then, log Vss=x·log W+log a (derived from a log-log plot of body weight versus Vss in the 3 species). […] The rate and extent of input was derived by deconvolution.
The nature of data set [9]: PK modelling and deconvolution of abiraterone plasma profiles, dogs (Example 7D).
Excerpt: as §3, §4
The nature of data set [10]: in vivo. The settings on record: dog, plasma, intramuscular.
Excerpt: as §3, §4
The nature of data set [11]: in vivo. The conditions noted are these: rat, plasma, intramuscular, 90 mg/kg.
Excerpt: as §3, §4
Data set [12] is described as follows: PK modelling and deconvolution of abiraterone plasma profiles, rats (Example 7D).
Excerpt: as §3, §4
A short description of data set [13]: in vivo. The settings on record: male, beagle, dog, plasma; for AUC(0-inf): dogs.
For data set [14] the following is noted: human.
Excerpt: as §5
The nature of data set [15]: in vivo. The settings on record: male, cynomolgus monkey, plasma.
Data set [16] in a line: in vivo. The conditions noted are these: male, rat, plasma.
Data set [17] in a line: PK of single IM abiraterone decanoate (and oral abiraterone acetate) in chemically castrated monkeys (Example 10). The settings on record: abiraterone in plasma.
Setting [18] is: Group 3: IM abiraterone suspension in castor oil (62.5 mg/ml).
Where [19] appears, read: Group 4: IM abiraterone suspension, sodium phosphate buffer, 0.1% Tween (62.5 mg/ml).
Where [20] appears, read: single IM 10 mg/kg, Geometric Mean (N=3).
The mark [21] stands for this setting: single IM 10 mg/kg, Median (N=3).
Setting [22] is: single IM 10 mg/kg, individual animals.
The mark [23] stands for this setting: single IM 30 mg/kg, Geometric Mean (N=3).
Where [24] appears, read: single IM 30 mg/kg, Median (N=3).
[25] abbreviates: single IM 30 mg/kg, individual animals.
Setting [26] is: single IM 100 mg/kg, Mean (N=3).
The mark [27] stands for this setting: single IM 100 mg/kg, Median (N=3).
The mark [28] stands for this setting: single IM 100 mg/kg, individual animals.

Broadly, the Cmax is the highest concentration seen after dosing. In turn, `CC(C)CCC(=O)O[C@H]1CC[C@@]2(C)C(=CC[C@@H]3[C@@H]2CC[C@]2(C)C(c4cccnc4)=CC[C@@H]32)C1` [Abiraterone Isocaproate, Abiraterone isocaproate] gave a Cmax in data set [1] of 0.106 µg/mL.
As usually defined, the Tmax is the time at which the peak concentration occurs. As for `CC(=O)O[C@H]1CC[C@@]2(C)C(=CC[C@@H]3[C@@H]2CC[C@]2(C)C(c4cccnc4)=CC[C@@H]32)C1` [Abiraterone acetate, (3β)-17-(3-Pyridyl)androsta-5, acetate], in data set [2], the time to peak (Tmax) worked out at 8.00 h. In addition, in [2] (35 mg/kg), the AUClast was 0.934 µg·h/mL, the Cmax worked out at 0.0216 µg/mL and the Tmax came out at 39.2 h. Moreover, in data set [3], the injection site tolerability entry is recorded as “irritating to the dogs at the injection site”. In data set [3] (iv, 10 mg/kg), the AUCINF stood at 5.99 µg·h/mL, the AUCINF/Dose is reported as 599, the AUClast worked out at 5.92 µg·h/mL and the AUClast/Dose is reported as 592. For the same compound, the “time out to which blood levels were measurable” value in [3] (male) is 504 h.
Broadly, the half-life is the time needed for the level to fall by half in the phase considered. Low values mean rapid decline, high ones slow decline. One may read the bioavailability as dose-corrected exposure relative to a reference, in per cent. A high value points to good availability. One may read the AUC(0-inf) as the area under the concentration-time curve extrapolated to infinity. In general, Vd refers to a proportionality between amount in the body and measured concentration, not a real space. Higher therefore signals wide distribution into tissue. One may read the clearance as a measure of how efficiently the substance is removed, as volume per time. Lower therefore signals a low capacity for elimination. Turning to `C[C@]12CC[C@H](O)CC1=CC[C@@H]1[C@@H]2CC[C@]2(C)C(c3cccnc3)=CC[C@@H]12` [Abiraterone, (3β)-17-(pyridin-3-yl)androsta-5,16-dien-3-ol], the Cmax in [4] (setting [18]) was 0.0133 µg/mL; in data set [4] (setting [19]) it was 0.00143 µg/mL. Further, the values for the Tmax in [4] (setting [18]) and in data set [4] (setting [19]) were 2.6 h and 1.67 h, respectively. Also, the half-life in “in vivo [5]” is 325 h; in the data set “in vivo [6]” (1 mg/kg, mean t1/2), 2.1 h; in the data set “in vivo [10]” it was 319 h; in “in vivo [11]”, 325 h; in the data set “in vivo [13]” (im, 77 mg/kg, t1/2, dogs (N=3), Group 2: IM 77 mg/kg abiraterone isocaproate, 158 mg/ml in 90% corn oil/10% benzyl alcohol, plasma analyte = label, mean), 223 h. The bioavailability in “in vivo [6]” (im, absolute bioavailability for abiraterone) came out at 72%; in “in vivo [13]” (im, 77 mg/kg), 87%; in “in vivo [13]” (im, 87 mg/kg) it was 42%. Moreover, the AUC(0-inf) in the data set “in vivo [6]” (im, mean abiraterone AUCINF after IM, corrected for dose and time units) turned out to be 0.104 µg·h/mL; in the data set “in vivo [13]” (im, 60 mg/kg, mean abiraterone AUCINF after IM, corrected for dose and time units, 60 mg/kg IM administration (abiraterone decanoate)), 0.0704 µg·h/mL; in the data set “in vivo [13]” (im, 60 mg/kg, mean abiraterone AUCINF after IM, corrected for dose and time units, 60 mg/kg IM administration of abiraterone isocaproate) it was 0.114 µg·h/mL; in the data set “in vivo [13]” (iv, 0.78 mg/kg, mean abiraterone AUCINF after IV, corrected for dose, IV abiraterone isocaproate (0.78 mg/kg as abiraterone)) it was 0.131 µg·h/mL. In data set [1], this compound gave an AUCINF of 275 ng·days/mL. The AUClast in data set [1] is 266 ng·days/mL. In addition, the t1/2 in data set [1] came to 223 h. In addition, the F in data set [7] (Monkeys, IM bioavailability of abiraterone from abiraterone decanoate, deconvolution) was 14%; in data set [9] (Dogs, IM bioavailability of abiraterone from abiraterone decanoate, deconvolution) it was 56%; in data set [12] (Rats, IM bioavailability of abiraterone from abiraterone decanoate, deconvolution), 19%. Further, the Vd in [7] (monkey, plasma, iv, […]) came to 5.73 L/kg; in [9] (dog, plasma, iv, […]), 14.2 L/kg; in data set [12] (rat, plasma, iv, […]) it was 22.3 L/kg. Also, the clearance in [7] (monkey, plasma, iv, […]) is 2.58 L/h/kg; in data set [9] (dog, plasma, iv, […]), 6.47 L/h/kg; in [12] (rat, plasma, iv, […]), 11.4 L/h/kg. Also, the “Vss, predicted in man” value in data set [8] (allometric scaling from rats, dogs and monkeys) is reported as 437 L. Moreover, the “K01, predicted in man” value in data set [8] (from deconvolution of animal IM/IV data) is 0.00213 h⁻¹. The “F, predicted in man” value in [8] (value of dogs used) is 56%. Further, in data set [14], the “t1/2 (absorption half-life), predicted in man” value is given as 325 h.
Broadly, the CL/F is clearance divided by bioavailability, as obtained after extravascular dosing. As a reminder, the Vd/F is the volume of distribution divided by bioavailability. For `CCCCCCCCCC(=O)O[C@H]1CC[C@@]2(C)C(=CC[C@@H]3[C@@H]2CC[C@]2(C)C(c4cccnc4)=CC[C@@H]32)C1` [Abiraterone Decanoate, Abiraterone decanoate], the half-life in the data set “in vivo [15]” (im, 90 mg/kg) is 240 h; in “in vivo [15]” (iv, […]) it was 2.27 h; in “in vivo [6]” ([…]), 0.86 h; in the data set “in vivo [16]” (im, 90 mg/kg), 792 h; in the data set “in vivo [16]” (iv, […]) it was 3.2 h; in “in vivo [13]” (im, 87 mg/kg), 161 h. The time to peak (Tmax) in “in vivo [6]” (im, mean decanoate Tmax, range between the two IM formulations) was in the range of 2.64 to 6.24 h. Further, the AUC0-t in data set [17] (setting [20]) is 196 ng·days/mL; in data set [17] (single IM 10 mg/kg, Max (N=3)), 225 ng·days/mL; in data set [17] (single IM 10 mg/kg, Mean (N=3)), 198 ng·days/mL; in data set [17] (setting [21]) it was 212 ng·days/mL; in data set [17] (single IM 10 mg/kg, Min (N=3)) it was 157 ng·days/mL; in data set [17] (setting [22]), 225 ng·days/mL and 157 ng·days/mL and 212 ng·days/mL. The AUC0-t was 330 ng·days/mL in data set [17] (setting [23]); 449 ng·days/mL in [17] (single IM 30 mg/kg, Max (N=3)); 338 ng·days/mL in [17] (single IM 30 mg/kg, Mean (N=3)); 285 ng·days/mL in data set [17] (setting [24]); 281 ng·days/mL in data set [17] (single IM 30 mg/kg, Min (N=3)); 281 ng·days/mL and 285 ng·days/mL and 449 ng·days/mL in data set [17] (setting [25]). Further, the AUC0-t is 1760 ng·days/mL in data set [17] (single IM 100 mg/kg, Max (N=3)); 1410 ng·days/mL in [17] (setting [26]); 1270 ng·days/mL in data set [17] (setting [27]); 1200 ng·days/mL in data set [17] (single IM 100 mg/kg, Min (N=3)); 1270 ng·days/mL and 1200 ng·days/mL and 1760 ng·days/mL in [17] (setting [28]). Further, the “AUC0-∞” value was 209 ng·days/mL in data set [17] (setting [20]); 236 ng·days/mL in [17] (single IM 10 mg/kg, Max (N=3)); 212 ng·days/mL in [17] (single IM 10 mg/kg, Mean (N=3)); 235 ng·days/mL in data set [17] (setting [21]); 166 ng·days/mL in data set [17] (single IM 10 mg/kg, Min (N=3)); 235 ng·days/mL and 166 ng·days/mL and 236 ng·days/mL in data set [17] (setting [22]). The “AUC0-∞” value in data set [17] (setting [23]) was 347 ng·days/mL; in [17] (single IM 30 mg/kg, Max (N=3)) it was 492 ng·days/mL; in data set [17] (single IM 30 mg/kg, Mean (N=3)), 358 ng·days/mL; in data set [17] (setting [24]) it was 293 ng·days/mL; in data set [17] (single IM 30 mg/kg, Min (N=3)), 290 ng·days/mL; in data set [17] (setting [25]), 293 ng·days/mL and 290 ng·days/mL and 492 ng·days/mL. Further, the “AUC0-∞” value is 1770 ng·days/mL in data set [17] (single IM 100 mg/kg, Max (N=3)); 1430 ng·days/mL in [17] (setting [26]); 1330 ng·days/mL in [17] (setting [27]); 1200 ng·days/mL in [17] (single IM 100 mg/kg, Min (N=3)); 1330 ng·days/mL and 1200 ng·days/mL and 1770 ng·days/mL in data set [17] (setting [28]). The compound also gave a CL/F in “in vivo [13]” (im, 87 mg/kg) of 12.4 L/h/kg. This compound gave a Vd/F in “in vivo [13]” (im, 87 mg/kg) of 2850 L/kg.
